This is an account of results in patent US9192595B2, “Compounds with a skin pigmenting activity and pharmaceutical or cosmetic compositions containing them” (priority 2010, dated 2015).

Test [1] concerns foreskin primary melanocyte cultures. Kind of test: Intracellular melanin content by spectrophotometry in melanocyte cell lysates. The following applies: 72 h; 40 and 55 μM; NHM LP and NHM HP; vs. Ctr; FIG. 5. The test is classed as cell-based, human. The text has this:
(§1) A second experimental study assessed the action of the compounds according to the invention on the phenomena of melanocyte differentiation in the melanogenic process, as described below with reference to the attached drawings in FIGS. 3, 4 and 5. For this purpose, octatrienoic acid (called Octa in the diagrams, for the sake of brevity) was used on foreskin primary melanocyte cultures with varying degrees of basal pigmentation to assess the following parameters: • a) mRNA and tyrosinase protein expression, using real-time RT-PCR and Western-blot methods; • b) enzymatic activity of tyrosinase by spectrophotometry; • c) Quantification of melanin genesis by spectrophotometry.
In FIG. 5, *=p<0.05 vs. Ctr, **=p<0.01 vs. Ctr, $=p<0.001 vs. ctr.

In another test the test system is tyrosinase protein. As to the kind of experiment: Western blot analysis of tyrosinase protein expression in primary melanocyte cultures. The test is classed as cell-based, human. The following applies: 72 h; same doses (40 and 55); Western blot on protein extracts.
Source text: as §1
A general note: A western blot detects proteins with antibodies after separation by electrophoresis.

For the next test, the system named is tyrosinase. Kind of test: Tyrosinase enzymatic activity by spectrophotometry on melanocyte cell lysates. The test is classed as cell-based, human. As to conditions: 72 h; 40 and 55 μM; NHM LP and NHM HP; p<0.05 vs. Ctr; FIG. 4.
Source text: as §1
The activity of tyrosinase was evaluated by spectrophotometry on cell lysates derived from specimens incubated for 72 h with octatrienoic acid at concentrations of 40 and 55 μM, vs. control culture.
For these columns, *=p<0.05 vs. Ctr.

For a further test, the system named is tyrosinase mRNA. As to the kind of experiment: Tyrosinase mRNA expression by real-time RT-PCR in primary melanocyte cultures. The test is classed as cell-based, human. As to conditions: 24 h incubation; 40 and 55 μm; NHM LP and NHM HP; vs. Ctr; FIG. 3.
Source text: as §1
Tyrosinase mRNA expression was assessed by real-time RT-PCR on mRNA specimens extracted from cells after 24 h of incubation with octatrienoic acid at concentrations of 40 and 55 μm.
Forskoline (FSK), a known adenylate cyclase activator capable of promoting melanin synthesis, was used as a control for comparison with the activity of octatrienoic acid.
For these columns, *=p<0.01 vs. Ctr, **=p<0.001 vs. Ctr, and $=p<0.05 vs. Ctr.
Background: In qPCR the cycle at which signal appears reflects the starting amount.

The subject of the next test is Normal human scalp skin. As to the kind of experiment: Epidermal pigmentation in full-thickness skin organ culture (quantitative Masson-Fontana staining). The class given is cell-based. On the procedure:
This experimental study on the active ingredient octatrienoic acid according to the invention was based on organ cultures of skin biopsies, which were tested in 4 groups (3 skin biopsies/well) and incubated with different concentrations of the active ingredient for 6 days.
Normal human scalp skin was obtained from a person undergoing routine face-lift surgery, subject to their informed consent. All experiments were performed in accordance with the Declaration of Helsinki, with the approval of an ad hoc Ethical Committee.
Biopsies 3-4 mm in size were cultured at 37° C. for 6 days in Williams' E medium (Biochrom, Cambridge, U.K.) supplemented with 100 IU mL^−1 penicillin, 10 μg mL^−1 streptomycin (Gibco, Karlsruhe, Germany), 10 μg mL^−1 insulin (Sigma, Taufkirchen, Germany), 10 ng mL^−1 hydrocortisone (Sigma) and 2 mmol L^−1 L-glutamine (Invitrogen, Paisley, UK).
Three different concentrations of octatrienoic acid (0.1 μg/mL, 0.25 μg/mL, 0.5 μg/mL) or the reference medium were administered once, at each change of medium (i.e. every 48 hours).
For histochemical melanin assessment, Masson-Fontana staining was applied to frozen adult human scalp skin sections. Melanin stained as brown spots and the degree of pigmentation was evaluated using the quantitative Masson-Fontana test, as described elsewhere (Ito et al., 2005). This method gives a sensitive and reliable indication of changes in melanin synthesis, as shown by standard tyrosinase expression and enzyme activity assays. (Kauser et al., 2006)
Staining intensity was analysed in a previously-defined reference area of the epidermis using ImageJ software (National Institute of Health).
The statistical analysis was performed using Student's two-tailed t-test for independent samples.

On to `C/C=C/C=C/C=C/C(=O)O` [octatrienoic acid], for which the “quantity of intracellular melanins” value in test [1] is reported as “significant induction”. In addition, the “melanogenic enzyme (tyrosinase) protein expression” value in the test on tyrosinase protein was “induced melanogenic enzyme protein expression”. Also, the “tyrosinase enzymatic activity, % of the Ctr” value in the test on tyrosinase is reported as “significant increase”. Besides, in the test with tyrosinase mRNA, the “tyrosinase mRNA expression (Rel tyr mRNA expression, fold change)” value is listed as “significant induction”. Also, the “intensity of Masson-Fontana staining” value in the test on Normal human scalp skin (day 6, each dose (0.1, 0.25, 0.5 μg/mL) by comparison with the medium alone, FIG. 1) is “marked increase”. Also, in the test with Normal human scalp skin (day 6, each dose administered, microphotographs x200, FIG. 2), the “pigmentation in the basal layer of the epidermis” value is reported as “increased pigmentation”. Further, the skin pigmentation result with Normal human scalp skin (skin culture, all three doses tested (0.1, 0.25, 0.5 μg/mL), 6 days) is reported as “increased the skin pigmentation”.
